“Also recorded” adds a separate entry of the source. Non-standard residues stand in square brackets, D forms with d. Residues, ends and D or L forms follow the SMILES beside them. *: point of attachment. Sta = CC(C)C[C@H](N)[C@@H](O)CC(=O)O; Isovaleryl = CC(C)CC(=O)*
What was measured:
[1] = system: lipofuscin; experiment: Lipofuscin autofluorescence in fixed brain tissue after intraventricular leupeptin infusion; type: in vivo, mice; details: 5 mg/mL leupeptin, four weeks, vs vehicle (20 mM HEPES)
[2] = system: Aβ; experiment: Total Aβ by ELISA after formic acid extraction in PS1M146L/APPswe transgenic mice infused with protease inhibitor; type: in vivo; details: infusion from 8 to 12 weeks of age
Protocol: We also performed protease inhibitor infusion experiments in PS1M146L/APPswe transgenic mice. Infusion pumps containing either 2 mg/mL pepstatin or 10 mg/mL leupeptin were implanted into PS1M146L/APPswe transgenic mice at 8 weeks of age. Animals were sacrificed at 12 weeks of age, and total Aβ levels were determined by ELISA following formic acid extraction (FIG. 10A). […] Leupeptin treatment, on the other hand, increased total Aβ by 1.8 times when compared to untreated mice. We have additionally measured the activity of Cat D in the brains of untreated, pepstatin-treated, or leupeptin-treated mice (FIG. 10B).
The Aβ sandwich ELISA is generally known to those skilled in the art, with both Aβ ELISA kits (Biosource International, Camavillo, Calif.) and appropriate antibodies (e.g., 4G8, GE10; Seneteck, PLC, Napa, Calif.) available commercially. For the Aβ sandwich ELISA, Nunc-Immuno Plates (Nunc A/S Roskilde, Denmark) were coated overnight at […] using antibodies specific for Aβ40 or Aβ42 in 100 mM bicarbonate buffer, pH 9.6. […] Aβ was detected by incubating for 4 hours at room temperature with an HPR-conjugated anti-Aβ antibody in 20 mM Na phosphate, 2 mM EDTA, 400 mM NaCl, 1.0% BSA. ELISA plates were developed using a color reaction (ABTS Peroxidase Substrate System, Kirkegaard & Perry, Gaithersburg, Md.) and the OD450 read.

[3] = biological target: T1, Cat D (Mus musculus, UniProt P18242); experiment: Cat D activity in brains of PS1M146L/APPswe transgenic mice infused with protease inhibitor; type: in vivo; details: 2 mg/mL pepstatin or 10 mg/mL leupeptin, vs untreated
T1 construct: from tissue; host or cells: mouse brain (sections and hemi-brain homogenates)
Protocol: To administer the candidate compounds in the presence or absence of inhibitor(s), eight week old mice are anesthetized with pentobarbital (40-50 mg/kg i.p.) and placed in a stereotaxic apparatus with mouse adapter (David Kopf Instruments, Tujunga, Calif.). After sacrifice, placement of the probe into the lateral ventricle is confirmed and one hemi-brain immersion-fixed and the other hemi-brain homogenized for protease assays. We determine the efficacy of the candidate compound by assaying the activity of proteases in brain homogenates (e.g., Cat B, Cat L, Cat D, and trypsin (Brunk et al., Free Radic. Biol. Med. 19:813-822, 1995; Marotta and Nixon, J. Neurochem. 43:507-516, 1984; Koshikawa et al., Am. J. Pathol. 153:937-944, 1998); see, for example, Cat D shown in FIG. 11F). […] Lipofuscin granules are defined at the EM level as having a single layer of membrane and a bipartite structure consisting of electron lucent lipoid material and electron dense material (Cataldo and Nixon, Ann. N.Y. Acad. Sci. 679: 87-109, 1993).
We also performed protease inhibitor infusion experiments in PS1M146L/APPswe transgenic mice. […] Animals were sacrificed at 12 weeks of age, and total Aβ levels were determined by ELISA following formic acid extraction (FIG. 10A). […] We have additionally measured the activity of Cat D in the brains of untreated, pepstatin-treated, or leupeptin-treated mice (FIG. 10B).

[4] = system: cortical mantle; experiment: Nissl staining and cortical mantle thickness in PS1M146L/APPswe transgenic and non-transgenic mice infused with leupeptin; type: in vivo
Protocol: (§1) Several studies have recently raised the possibility that abnormal forms of tau is metabolized in lysosomes. […] There are numerous assays for tau known in the art. For example, the processing of tau by immunocytochemistry and Western blot analysis is performed using an antibody that recognizes both phosphorylated and non-phosphorylated forms (Adamec et al., Brain Res. 757:93-101, 1997). Abnormal tau conformation and hyperphosphorylated tau is examined using suitable monoclonal antibodies. (e.g., MC1 (Jicha et al., J. Neurosci. Res. 48:128-132) and AT8 (Innogenetics, Gent, Belgium)). EM analysis can be performed to characterize cytoskeletal changes in neurons (Nixon, Bioessays 20:798-807, 1998). Alternatively, the magnitude of neurodegeneration in the mice can be determined by Nissl stain.
As a second example of the usefulness of inducing lysosomal system dysfunction by protease inhibitor infusion, we treated PS1M146L/APPswe transgenic mice, an established model of AD-like pathology (Duff et al., Nature 383:710-713, 1996). Infusion pumps containing 5 mg/mL leupeptin were implanted into PS1M146L/APPswe transgenic mice at 1 year of age. Animals were sacrificed 4 weeks later.
We confirmed this observation by measuring the thickness of the cortical mantle in these mice (FIG. 15). […] One current limitation of the existing mouse models of AD is their failure to show substantial neuronal atrophy and/or neuronal cell loss, key features of the disease in humans.

[5] = system: lipofuscin-like material in neurons; details: chronic inhibition (7+days) by infusion; cited from earlier work
[6] = system: tau; experiment: Western blot analysis of tau in brain of leupeptin-infused mice; type: in vivo
Protocol: as §1

T1 sequence (P18242 65-410): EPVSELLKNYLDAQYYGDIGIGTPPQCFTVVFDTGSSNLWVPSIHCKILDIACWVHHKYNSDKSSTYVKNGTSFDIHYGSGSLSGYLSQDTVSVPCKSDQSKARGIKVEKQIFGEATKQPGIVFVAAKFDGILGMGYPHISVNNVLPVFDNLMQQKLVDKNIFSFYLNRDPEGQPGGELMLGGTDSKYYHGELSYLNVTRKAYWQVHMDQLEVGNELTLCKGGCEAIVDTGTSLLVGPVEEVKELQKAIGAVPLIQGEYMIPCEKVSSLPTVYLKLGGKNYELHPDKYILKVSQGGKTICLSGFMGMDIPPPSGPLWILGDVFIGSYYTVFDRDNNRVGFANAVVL

CC(=O)N[C@@H](CC(C)C)C(=O)N[C@@H](CC(C)C)C(=O)N[C@H](C=O)CCCNC(=N)N [leupeptin]
lipofuscin autofluorescence [1]: increase in lipofuscin autofluorescence; also recorded: lipotuscin autofluorescence in sections of leupeptin-treated but not vehicle-treated brains
total Aβ increase compared to untreated mice ([2]; 10 mg/mL leupeptin): 1.8 times
activity of Cat D in the brain [3]: increased Cat D activity
reduction of thickness of the cortex ([4]; PS1M146L/APPswe mouse, 5 mg/mL leupeptin, 4 weeks): over 20%
Nissl staining of cortex ([4]; PSM146L/APPswe mouse, 5 mg/mL leupeptin, 4 weeks, vs non-transgenic littermate also infused with leupeptin): substantial cortical neuronal hypotrophy, chromatolysis and possibly loss of neurons
thickness of the cortical mantle ([4]; non-transgenic mouse, leupeptin vs vehicle): small decrease
accumulation of lipofuscin-like material in neurons [5]: results in accumulation of lipofuscin-like material in neurons
lower molecular weight forms of tau (Mr~30-34 kDa) by Western blot [6]: increase in the lower molecular weight forms of tau

CC(C)CC(=O)N[C@H](C(=O)N[C@H](C(=O)N[C@@H](CC(C)C)[C@@H](O)CC(=O)N[C@@H](C)C(=O)N[C@@H](CC(C)C)[C@@H](O)CC(=O)O)C(C)C)C(C)C [pepstatin] (Isovaleryl-VV[Sta]A[Sta]-OH)
total Aβ level relative to untreated mice ([2]; 2 mg/mL pepstatin): reduced to half the level
activity of Cat D in the brain [3]: reduced activity of Cat D

aprotinin
accumulation of lipofuscin-like material in neurons [5]: does not

CCN(CC)CCCC(C)Nc1ccnc2cc(Cl)ccc12 (stereo not drawn) [chloroquine]
accumulation of lipofuscin-like material in neurons [5]: results in accumulation of lipofuscin-like material in neurons

From US6838592B1, “Methods for the identification of compounds for the treatment of alzheimer's disease” (Nathan S. Kline Institute for Psychiatric Research, priority 1999, dated 2005)
